According to the NIST ThermoML archive (doi:10.1016/j.jct.2018.06.007):

What was measured:
[1] = 101 kPa, Liquid; for speed of sound: Frequency=2 MHz, Linear variable-path acoustic interferometer; for mass density: Pycnometric method
[2] = xn = mol fraction of the nth substance listed; conditions: 101 kPa, Liquid; for speed of sound: Frequency=2 MHz, Linear variable-path acoustic interferometer; for mass density: Pycnometric method

CCCO [propan-1-ol]
[1]
Conditions | mass density [kg/m3] | speed of sound [m/s]
293.15 K | 803.76 | 1227
303.15 K | 795.82 | 1192.5
313.15 K | 787.88 | 1157.7

CCCCO [butan-1-ol] + CCN(CC)CCO
[2], x2 = 0
Conditions | mass density [kg/m3] | speed of sound [m/s]
293.15 K | 809.53 | 1261.9
303.15 K | 802 | 1224.7
313.15 K | 794.7 | 1188.8

CCN(CC)CCO [(diethylamino)ethanol] + CCCO
[2]
Conditions | mass density, 293.15 K [kg/m3] | mass density, 303.15 K [kg/m3] | mass density, 313.15 K [kg/m3] | speed of sound, 293.15 K [m/s] | speed of sound, 303.15 K [m/s] | speed of sound, 313.15 K [m/s]
x1 = 0.0937 | 817.5 | 809.54 | 801.82 | 1247.7 | 1213.2 | 1178.9
x1 = 0.1994 | 830.99 | 822.96 | 815.1 | 1269 | 1234.4 | 1199.7
x1 = 0.3005 | 842.11 | 833.85 | 825.77 | 1287.6 | 1252.7 | 1217.3
x1 = 0.4048 | 851.86 | 843.48 | 835.1 | 1305 | 1269.5 | 1233.2
x1 = 0.5072 | 859.98 | 851.48 | 842.85 | 1320.1 | 1284.1 | 1247
x1 = 0.61 | 866.74 | 858.08 | 849.33 | 1333.3 | 1296.9 | 1259.2
x1 = 0.7093 | 872.27 | 863.47 | 854.7 | 1344 | 1307.3 | 1269.4
x1 = 0.801 | 876.7 | 867.78 | 858.95 | 1352.2 | 1315.3 | 1277
x1 = 0.9047 | 881.06 | 871.91 | 862.91 | 1360.1 | 1322.3 | 1282.5
x1 = 1 | 884.37 | 874.93 | 865.62 | 1366.5 | 1327.3 | 1285

CCCCO [butan-1-ol]
[1]
Conditions | mass density [kg/m3] | speed of sound [m/s]
293.15 K | 809.53 | 1261.9
303.15 K | 802 | 1224.7
313.15 K | 794.7 | 1188.8

CCN(CC)CCO [(diethylamino)ethanol] + CCCCO
[2]
Conditions | mass density, 293.15 K [kg/m3] | mass density, 303.15 K [kg/m3] | mass density, 313.15 K [kg/m3] | speed of sound, 293.15 K [m/s] | speed of sound, 303.15 K [m/s] | speed of sound, 313.15 K [m/s]
x1 = 0.0902 | 820.03 | 812.47 | 805.16 | 1276.3 | 1239.8 | 1204.1
x1 = 0.1941 | 831.16 | 823.43 | 815.92 | 1291.2 | 1254.8 | 1218.7
x1 = 0.2938 | 840.82 | 832.89 | 825.11 | 1304.3 | 1267.7 | 1231
x1 = 0.4045 | 850.42 | 842.23 | 834.18 | 1317.8 | 1281 | 1243.5
x1 = 0.5081 | 858.32 | 849.91 | 841.63 | 1329.2 | 1292.2 | 1254
x1 = 0.6088 | 865.03 | 856.45 | 847.98 | 1339.3 | 1302.1 | 1263.3
x1 = 0.7129 | 871.14 | 862.42 | 853.78 | 1348.6 | 1311.2 | 1271.9
x1 = 0.8131 | 876.29 | 867.39 | 858.66 | 1356.4 | 1318.7 | 1278.8
x1 = 0.9037 | 880.46 | 871.28 | 862.4 | 1362.2 | 1324 | 1283.2
x1 = 1 | 884.37 | 874.93 | 865.62 | 1366.5 | 1327.3 | 1285

CCN(CC)CCO [(diethylamino)ethanol]
[1]
Conditions | mass density [kg/m3] | speed of sound [m/s]
293.15 K | 884.37 | 1366.5
303.15 K | 874.93 | 1327.3
313.15 K | 865.62 | 1285

CCCO [propan-1-ol] + CCN(CC)CCO
[2], x2 = 0
Conditions | mass density [kg/m3] | speed of sound [m/s]
293.15 K | 803.76 | 1227
303.15 K | 795.82 | 1192.5
313.15 K | 787.88 | 1157.7
